According to patent US11098040B2, “Compounds and methods of use” (Ferro Therapeutics, Inc., priority 2018, dated 2021):
“And” between values parts separate entries of the source, which are not always exact repeats. Equal entries are not always repeated. Where two headings read alike, the source gives them in different places.

What was measured:
[1] = tested on: Panc 02.03; test: Cell proliferation assay, pancreatic cancer cell line Panc 02.03; type: cell-based; details: Homo sapiens
Method: (§1) Cell viability assay was performed to assess the potency of the compounds in human cancer cell lines 786-O (renal cell carcinoma) and SJSA-1 (osteosarcoma). Additional cell lines, such as those described above in Example 4 as well as various others, e.g., pancreatic cancer cell lines (Panc 02.13, BxPC-3, Panc 12, Panc 02.03, Panc 6.03, PSN-1, HPAC, and Capan-1) and prostate cancer cell lines (PC-3, DU145, 22Rv1, NCI-H660, BPH1, LNCaP, BM-1604, and MDA PCa 2b), were tested for select compounds as shown in Table 25.
(§2) The cell proliferation assays for the compounds shown Table 25 was performed according to the protocols described herein, including Examples 4 and 6.

[2] = tested on: PSN-1; test: Cell proliferation assay, pancreatic cancer cell line PSN-1; type: cell-based; details: Homo sapiens, PSN1
Method: as §1, §2

[3] = tested on: MiaPaCa-2; test: Cell viability assay (CellTiter Glo), pancreatic carcinoma MiaPaCa-2; type: cell-based; details: Homo sapiens
Method in brief: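 MiaPaCa-2 and AsPC-1 cells were seeded overnight at 37 °C and exposed for 96 h to 9-point, 3-fold dilutions from up to 30 μM (final DMSO ≤0.25%). CellTiter Glo luminescence was read, and inhibition was calculated relative to DMSO-only cells. IC50, relative IC50 or % top inhibition was derived.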

[4] = tested on: AsPC-1; test: Cell viability assay (CellTiter Glo), pancreatic adenocarcinoma AsPC-1; type: cell-based; details: Homo sapiens, ASPC1
Method: (§3) Cell viability assay was performed to assess the potency of the compounds in human cancer cell lines KP4 (pancreatic ductal adenocarcinoma), MiaPaCa-2 (pancreatic carcinoma), AsPC-1 (pancreatic adenocarcinoma, ascites), 143B (osteosarcoma), and SJSA-1 (osteosarcoma). Selected compounds were also assayed in a human breast epithelial cell line MCF-10A, a nontumorigenic cell line as a control to assess differential activity. Cells at a density of 500-5,000 cells/well were seeded in 96-well plates and incubated at 37° C. overnight. A series of 9 different concentrations of compound stocks (500×) were created by 3-fold serial dilution in DMSO. These compounds were further diluted in culture media and then added to cells so that the final DMSO concentration was equal to 0.25% or less. After 96 hours of incubation, 50 μL of CellTiter Glo reagent (Promega) was added to each well and luminescence was measured after 10 minutes using EnVision (PerkinElmer). Compounds titrated from top concentration of up to 30 μM. The select compounds were tested initially from 30 μM as the top concentration in duplicates (range of 4.6 nM-30 μM). […] Luminescence from cells treated with DMSO alone was set as Max and % of inhibition was calculated as follows: Inhibition %=(Max-Sample value)/Max*100. Data was analyzed using XL-fit software (ID Business Solutions Ltd.). IC50, relative IC50, or % of top inhibition was calculated.
(§4) The results of the assay in the pancreatic cell lines are given in Table 15a for PANC1, Table 15b for MiaPaCa-2, and Table 15c for AsPC-1.

[5] = tested on: KP4; test: Cell viability assay (CellTiter Glo), pancreatic ductal adenocarcinoma KP4; type: cell-based, human; details: Homo sapiens, KP-4, Cell Line KP4; read-out: IC50
Method in brief: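 Luminescent ATP readout (CellTiter Glo) after 96 h compound exposure, normalized to DMSO-treated cells as maximum. Compounds ran in duplicate, nine 3-fold steps from 30 μM down to 4.6 nM, final DMSO ≤0.25%; KP4 plated overnight at 1,000–10,000 cells/well. Outputs: IC50, relative IC50 or % top inhibition.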

[6] = tested on: H2228; test: Cell viability assay (CellTiter Glo), lung cancer cell line H2228; type: cell-based; details: Homo sapiens, NCI-H2228
Method: as §3
(§5) A group of selected analogs were further profiled in cell viability assays described above in multiple additional cancer cell lines, including lung cancer, melanoma, hepatocarcinoma, pancreatic cancer, leukemia, lymphoma, ovarian cancer, breast cancer, colon cancer, and sarcoma cell lines. Initial cell seeding numbers were adjusted for each cell line. Typically, 500-5000 cells/well for adherent cells and 5000-10000/well for suspension cells were seeded in 96-well plates.

[7] = tested on: 143B; test: Cell viability assay (CellTiter Glo), osteosarcoma 143B; type: cell-based; details: Homo sapiens
Method: as §3
(§6) The results of the assay in sarcoma cell lines are given in Table 21a for HT-1080 luc2 (fibrosarcoma expressing a luciferase gene), Table 21b for 143B (osteosarcoma), and Table 21c for SJSA-1 (osteosarcoma).

[8] = tested on: Panc 02.13; test: Cell proliferation assay, pancreatic cancer cell line Panc 02.13; type: cell-based
Method: as §1, §2

[9] = tested on: Panc 6.03; test: Cell proliferation assay, pancreatic cancer cell line Panc 6.03; type: cell-based
Method: as §1, §2

[10] = tested on: Panc 12; test: Cell proliferation assay, pancreatic cancer cell line Panc 12; type: cell-based; details: Cell Line Panc 12
Method: as §1, §2

[11] = tested on: BxPC-3; test: Cell proliferation assay, pancreatic cancer cell line BxPC-3; type: cell-based; details: Homo sapiens
Method: as §1, §2

[12] = tested on: HPAC; test: Cell proliferation assay, pancreatic cancer cell line HPAC; type: cell-based; details: Homo sapiens
Method: as §1, §2

[13] = tested on: Capan-1; test: Cell proliferation assay, pancreatic cancer cell line Capan-1; type: cell-based; details: Homo sapiens
Method: as §1, §2

[14] = tested on: PANC1; test: Cell viability assay (CellTiter Glo), pancreatic cell line PANC1; type: cell-based; details: Homo sapiens, PANC-1, 96 hours
Method: as §3, §5, §4

[15] = tested on: HCC1954; test: Cell viability assay (CellTiter Glo), breast cancer cell line HCC1954; type: cell-based; details: Homo sapiens, 96 hours
Method: as §3, §5

[16] = tested on: MDA-MB-435S; test: Cell viability assay (CellTiter Glo), melanoma cell line MDA-MB-435S; type: cell-based; details: Homo sapiens, 96 hours
Method: as §3, §5

[17] = tested on: MCF-10A; test: Cell viability assay (CellTiter Glo), non-tumorigenic breast epithelial cell line MCF-10A; type: cell-based; details: Homo sapiens, 96 hours
Method in brief: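 Non-tumorigenic breast epithelial MCF-10A line, exposed for 96 hours to compound (top concentration up to 30 μM, 3-fold steps, duplicates, final DMSO 0.25% or less). ATP luminescence (CellTiter Glo) normalised to DMSO controls yields IC50, relative IC50 or % top inhibition; paclitaxel served as cytotoxic control.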

[18] = tested on: Kasumi-1; test: Cell viability assay (CellTiter Glo), leukemia cell line Kasumi-1; type: cell-based; details: Homo sapiens, 96 hours
Method: as §3, §5
(§7) The results of the assay in the leukemia cell lines are given in Table 16a for MV-4-1 and Table 16b for HL-60 and Kasumi-1.

[19] = tested on: SJSA-1; test: Cell viability assay (CellTiter Glo), osteosarcoma SJSA-1; type: cell-based; details: Homo sapiens, 96 hours
Method in brief: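 Cells seeded at 500-5,000/well overnight, then 96 h exposure to 9-point 3-fold dilutions from up to 30 μM (4.6 nM-30 μM), final DMSO ≤0.25%. Viability by CellTiter Glo luminescence; inhibition relative to DMSO-only cells, yielding IC50, relative IC50 or % top inhibition.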

[20] = tested on: SW480; test: Cell viability assay (CellTiter Glo), colon cancer cell line SW480; type: cell-based; details: Homo sapiens, 96 hours
Method: as §3, §5

[21] = tested on: MV-4-1; test: Cell viability assay (CellTiter Glo), leukemia cell line MV-4-1; type: cell-based; details: 96 hours
Method: as §3, §5, §7

[22] = tested on: HT29; test: Cell viability assay (CellTiter Glo), colon cancer cell line HT29; type: cell-based; details: Homo sapiens, HT-29, 96 hours
Method: as §3, §5

[23] = tested on: HL-60; test: Cell viability assay (CellTiter Glo), leukemia cell line HL-60; type: cell-based; details: Homo sapiens, 96 hours
Method: as §3, §5, §7

[24] = tested on: HT-1080 luc2; test: Cell viability assay (CellTiter Glo), fibrosarcoma HT-1080 luc2; type: cell-based; details: Homo sapiens, fibrosarcoma expressing a luciferase gene, 96 hours, CellTiter Glo, read-out: IC50 HT-1080 luc2
Method: as §3, §5, §6

[25] = tested on: H1299; test: Cell viability assay (CellTiter Glo), lung cancer cell line H1299; type: cell-based; details: Homo sapiens, NCI-H1299, 96 hours
Method: as §3, §5

[26] = tested on: REC-1; test: Cell viability assay (CellTiter Glo), lymphoma cell line REC-1; type: cell-based; details: Homo sapiens, Rec1, 96 hours
Method: as §3, §5

[27] = tested on: SK-OV-3; test: Cell viability assay (CellTiter Glo), ovarian cancer cell line SK-OV-3; type: cell-based; details: Homo sapiens, 96 hours
Method: as §3, §5

[28] = tested on: Huh7; test: Cell viability assay (CellTiter Glo), hepatocellular carcinoma Huh7; type: cell-based; details: Homo sapiens, Huh-7, 96 hours
Method: as §3, §5

[29] = tested on: Raji; test: Cell viability assay (CellTiter Glo), lymphoma cell line Raji; type: cell-based; details: Homo sapiens, 96 hours
Method: as §3, §5

[30] = Pharmacokinetic (PK) studies in Balb/C nude mice via intraperitoneal injection; details: plasma; for concentration at 0.5 h / concentration at 4 h: Calculated Concentration; for concentration at 0.5 h / concentration at 4 h / Calculated Concentration: IP 15 mg/kg, Balb/C nude mice
Method: Test compounds were dissolved either in 20% (w/w) sulfobutylether-β-cyclodextrin (SBECD) pH 3-7 aqueous solution, or 5% DMSO/(30-50%) PEG400/(65-45%) water. Test compound dosing solutions were administered intraperitoneally to Balb/c nude male mice. Blood samples were collected at various time points with EDTA-K2 as anti-coagulant on ice, and centrifuged to obtain plasma samples. The plasma samples were stored at −20° C. until analysis.
Into 10 μL of test compound plasma samples were added 2 μL DMSO then 200 μL of 5 ng/mL internal standard (VTSD) (Terfenadine) in MeOH/acetonitrile. The mixture was vortexed for 1 minute and centrifuged at 4000 rpm for 15 minutes. Calibration standards were prepared by spiking known amount of test compounds into blank plasma samples. The supernatant solution was diluted 5 times with Acetonitrile/H2O (with 0.1% formic acid, 1:1, v/v), and this is the solution for LC-MS/MS analysis. The limit of quantification (LOQ) was 1 ng/mL.
Typical HPLC mobile phases were mobile phase of 5 mM NH4OAc (with 0.05% formic acid); and mobile phase B of acetonitrile (with 0.1% formic acid). The HPLC column was Kinetex C18 (30 mm×3.00 mm). Mass spectrometer was tuned for each compound in the Multiple Reaction Monitoring (MRM) scanning mode and in the electrospray ionization mode. The lower limit of quantification was 1-10 ng.
In this study, K601 (RSL3) was formulated in 5% DMSO/30% PEG 400/65% water at 1.5 mg/mL. The volume of injection via intraperitoneal route was 10 mL/kg for a dose of 15 mg/kg. […] The limit of quantification (LOQ) was 1 ng/mL.
In this study, the compound was formulated in 20% (w/w) sulfobutylether-β-cyclodextrin (SBECD), pH 5 aqueous solution at 1.5 mg/mL. The volume of injection via intraperitoneal route was 10 mL/kg for a dose of 15 mg/kg. The concentration of test compounds in plasma were analyzed by LC-MS with the method described above. The limit of quantification was 1 ng/mL.
It was formulated in 5% DMSO/50% PEG400/45% Water pH adjusted to 4 with HCl as an aqueous solution at 1.0 mg/mL. The volume of injection via intraperitoneal route was 15 mL/kg for a dose of 15 mg/kg. The concentration of test compounds in plasma were analyzed by LC-MS with the method described above. The limit of quantification was 1 ng/mL. […] The limit of quantification was 1 ng/mL.
Compounds 24 and 28 were formulated in 20% (w/w) sulfobutylether-β-cyclodextrin (SBECD) with pH 3 and pH 4, respectively, as an aqueous solution at 1.0 mg/mL. Compound 67 was in 5% DMSO/50% PEG 400/45% water pH 4 (adjusted with 12 N HCl) aqueous solution at 1.0 mg/mL. The injection volume via intraperitoneal route was 10 mL/kg for a dose of 15 mg/kg. The concentration of test compounds in plasma were analyzed by LC-MS with the method described above. The limit of quantification was 1 ng/mL.

[31] = MIA PaCa-2, pancreatic carcinoma, 96 hours, CellTiter Glo, read-out: IC50 MiaPaCa-2
[32] = pancreatic adenocarcinoma, ascites, 96 hours, CellTiter Glo, read-out: IC50 AsPC-1
[33] = lung cancer cell line, 96 hours, CellTiter Glo, read-out: IC50 H2228
[34] = male, Balb/c nude, mouse, ip, 15 mg/kg

| Compound | IC50 [14] [nM] | IC50 [15] [nM] | IC50 [3, 31] [nM] | IC50 [16] [nM] | IC50 [17] [nM] | IC50 [4, 32] [nM] | IC50 [18] [nM] | IC50 [6, 33] [nM] | IC50 [19] [nM] | IC50 [20] [nM] | IC50 [21] [nM] | IC50 [22] [nM] | IC50 [23] [nM] | IC50 [24] [nM] | IC50 [25] [nM] | IC50 [26] [nM] | IC50 [27] [nM] | IC50 [28] [nM] | IC50 [29] [nM] | also measured |
| --- | --- | --- | --- | --- | --- | --- | --- | --- | --- | --- | --- | --- | --- | --- | --- | --- | --- | --- | --- | --- |
| C[C@H]1Cc2c([nH]c3ccccc23)[C@H](c2ccc(N3CCC3)cc2)N1C(=O)CCl [Compound 239] | – | – | – | – | – | – | – | – | – | – | – | – | – | – | – | – | – | – | – | IC50 [1]: 394 nM; IC50 [2]: 183 nM; IC50 ([3]; Cell Line Mia PaCa-2, read-out: IC50): 259 nM; IC50 ([4]; Cell Line AsPC-1, read-out: IC50): 65.2 nM; IC50 [5]: 4 nM; IC50 ([6]; Cell Line H2228, read-out: IC50): 14.6 nM; IC50 ([7]; Cell Line 143B, read-out: IC50): 1120 nM; IC50 [8]: 1110 nM; IC50 [9]: 166 nM; IC50 [10]: 57.8 nM; IC50 [11]: 910 nM; IC50 [12]: 321 nM; IC50 [13]: > 1000 nM |
| COC(=O)[C@H]1Cc2c([nH]c3ccccc23)[C@H](c2ccc(N[C@]34CC5C[C@H](C[C@H](C5)C3)C4)cc2)N1C(=O)CCl [Example 29] | 27 | 38 | 33 | 6 | 410 | 23 | 28 | 32 | 14 | 2000 | 48 | 49 | 31 | 5 | 5 | 27 | 12 | 13 | 9 | – |
| COC(=O)c1ccc([C@@H]2c3[nH]c4ccc(F)cc4c3C[C@H](C(=O)OC)N2C(=O)CCl)cc1 [Example 92] | 78 | 96 | – | 17 | 1140 | – | – | 50 | – | 533 | 129 | 228 | – | 12 | 13 | 70 | 47 | 73 | 28 | – |
| C[C@H]1Cc2c([nH]c3ccc(F)cc23)[C@H](c2ccc(N3CCOCC3)cc2)N1C(=O)CCl [Example 114] | – | – | – | – | – | – | 145 | – | 115 | – | – | – | 120 | – | – | – | – | – | – | – |
| COC(=O)c1ccc([C@H]2c3[nH]c4ccccc4c3C[C@H](C(=O)OC)N2C(=O)CCl)cc1 [Example K601, RSL3, reference compound] | 116 | 180 | 15 | 37 | 2950 | 105 | 203 | 75 | 67 | 619 | 258 | 832 | 104 | 27 | 35 | 227 | 142 | 242 | 92 | AUC [30, 34]: 1.28 ng·h/mL; AUC(0-t) [30, 34]: 1.28 ng·h/mL; Cmax [30, 34]: 1.33 ng/mL; Tmax [30, 34]: 1.67 h; concentration at 0.5 h ([30]; male, Balb/c nude, mouse, ip, 15 mg/kg, 0.5 h, individual mice): 1.18 ng/mL; concentration at 4 h ([30]; male, Balb/c nude, mouse, ip, 15 mg/kg, 4 h, individual mice): 1.63 ng/mL; concentration at 0.5 h ([30]; male, Balb/c nude, mouse, ip, 15 mg/kg, Mean, 0.5 h, mean of 3 mice): 0.783 ng/mL; concentration at 4 h ([30]; male, Balb/c nude, mouse, ip, 15 mg/kg, Mean, 4 h, mean of 3 mice): 0.543 ng/mL; Calculated Concentration ([30]; 0.5 h, individual mice, 15 mg/kg): BLOQ (BLOQ = Below limit of quantification (which was 1 ng/mL)) and 1.17 ng/mL; Calculated Concentration ([30]; 1 h, individual mice): BLOQ (BLOQ = Below limit of quantification (which was 1 ng/mL)); Calculated Concentration ([30]; 2 h, individual mice): BLOQ (BLOQ = Below limit of quantification (which was 1 ng/mL)); Calculated Concentration ([30]; 4 h, individual mice, 15 mg/kg): BLOQ (BLOQ = Below limit of quantification (which was 1 ng/mL)); IC50 ([7]; 96 h, osteosarcoma, 96 hours, CellTiter Glo, read-out: IC50 143B): 32 nM |
